Here are results for three compounds from PMC8474606 (Brain, Behavior, & Immunity - Health, 2020).

One data set has as its system H+/OC antiporter. The data set can be described thus: DPHM uptake in BMECs after inflammatory cytokine treatment. The following applies: cytokine 0.1–30 ng/ml, 24 h; DPHM 30 μM, 30 s.
A further data set in a line: Brain uptake index. The class given is in vivo, rat. The following applies: data not shown.

Consider TNF-α, for which the “Effect on DPHM uptake into BMECs” value in the data set with H+/OC antiporter is “little effect”.

For the compound IL-1β: recombinant human interleukin-1β, the “Effect on DPHM uptake into BMECs” value in the data set on H+/OC antiporter is reported as “little effect”.

For the compound `O=C(O)Cc1ccccc1Nc1c(Cl)cccc1Cl` [diclofenac], in the data set “Brain uptake index”, the “Brain uptake of reference compound, control vs LPS rats” value is “similar”.
